Test results reported in patent US7091207B2, “Method of treating myocardial infarction with PDE-5 inhibitors” (Virginia Commonwealth University, priority 2002, dated 2006).
Marks after values point to notes of the source that are not given here.

Key:
[1] = Systemic hemodynamics (blood pressure, heart rate, rate pressure product) in rabbits; assay type: in vivo, rabbit
eNOS = assay: Cardiac eNOS mRNA (RT-PCR) and protein (Western blot) expression after treatment; assay type: in vivo, mouse; settings: 0.7 mg/kg IP
Description: Adult male outbred ICR mice were supplied by Harlan Inc (Indianapolis, Ind.). Viagra pills (Pfizer Inc) were ground into powder and dissolved in saline. The drug solution was filtered (0.45-μm pore size) before intraperitoneal injection. 1400W, an iNOS inhibitor, was obtained from Alexis. We used an isolated perfused mouse heart model subjected to 20 minutes of global ischemia and 30 minutes of reperfusion (Langendorff mode). Myocardial I-R injury was assessed by measuring infarct size, contractile function, and coronary flow as described previously (Xi, 1999). Twenty-eight mice were randomized into the following 4 groups: (n=6 to 9 per group): (1) saline (0.15 mL IP), (2) sildenafil (0.7 mg/kg IP, equivalent to 50 mg Viagra pill used for patients with erectile dysfunction, given 24 hours before I-R), (3) sildenafil+1400W (10 mg/kg IP, 14 given 30 minutes before I-R), and (4) saline+1400W. Measurement of NOS Isoforms Mice were treated with sildenafil (0.7 mg/kg IP), and their hearts were removed at 15, 30, and 45 minutes and 1, 2, 3, 4, and 24 hours after injection (n=3 per group). […] The target bands were identified on the basis of their specific size using DNA standards. iNOS and eNOS proteins were measured by Western blots as described previously. […] The mRNA and protein expression were quantified by scanning each of the RT-PCR or Western blot band using a densitometer (Bioquant 98). […]

[2] = system: nNOS, iNOS and eNOS knockout mouse hearts; assay: Delayed cardioprotection in NOS gene-knockout mice, isolated perfused heart, 30 min global ischemia and 60 min reperfusion; assay type: in vivo; settings: iNOS-KO mice
[3] = oral 1.4 mg/kg, after 30 minutes
[4] = oral sildenafil citrate 1.4 mg/kg, Acute, 30-min Ischemia
[5] = oral sildenafil citrate 1.4 mg/kg, Acute, 60-min Reperfusion
[6] = oral sildenafil citrate 1.4 mg/kg, Acute, 80-min Reperfusion
[7] = oral sildenafil citrate 1.4 mg/kg, Acute, 120-min Reperfusion
[8] = oral sildenafil citrate 1.4 mg/kg, Acute, Baseline
[9] = oral sildenafil citrate 1.4 mg/kg, Acute, Preischemia
[10] = oral sildenafil citrate 1.4 mg/kg, Delayed, 30-min Ischemia
[11] = oral sildenafil citrate 1.4 mg/kg, Delayed, 60-min Reperfusion
[12] = oral sildenafil citrate 1.4 mg/kg, Delayed, 80-min Reperfusion
[13] = oral sildenafil citrate 1.4 mg/kg, Delayed, 120-min Reperfusion
[14] = oral sildenafil citrate 1.4 mg/kg, Delayed, Baseline
[15] = oral sildenafil citrate 1.4 mg/kg, Delayed, Preischemia
[16] = sildenafil 0.7 mg/kg IV, acute phase, 30-min Ischemia
[17] = sildenafil 0.7 mg/kg IV, acute phase, Baseline
[18] = sildenafil 0.7 mg/kg IV, acute phase, Preischemia
[19] = sildenafil 0.7 mg/kg IV, acute phase, Reperfusion (60 min)
[20] = sildenafil 0.7 mg/kg IV, acute phase, Reperfusion (120 min)
[21] = sildenafil 0.7 mg/kg IV, acute phase, Reperfusion (180 min)
[22] = sildenafil 0.7 mg/kg IV, delayed phase, 30-min Ischemia
[23] = sildenafil 0.7 mg/kg IV, delayed phase, Baseline
[24] = sildenafil 0.7 mg/kg IV, delayed phase, Preischemia
[25] = sildenafil 0.7 mg/kg IV, delayed phase, Reperfusion (60 min)
[26] = sildenafil 0.7 mg/kg IV, delayed phase, Reperfusion (120 min)
[27] = sildenafil 0.7 mg/kg IV, delayed phase, Reperfusion (180 min)
[28] = sildenafil citrate 0.7 mg/kg intravenous, within 2 minutes

For `CCCc1nn(C)c2c(=O)[nH]c(-c3cc(S(=O)(=O)N4CCN(C)CC4)ccc3OCC)nc12` [sildenafil], the “changes in heart rate” value ([1]; 0.7 mg/kg intravenous) was “No significant changes in heart rate”, the “time until systemic hemodynamics returned to nearly baseline levels” value ([1]; 0.7 mg/kg intravenous) was ≤ 5 min and the “changes in heart rate” value ([1]; oral 1.4 mg/kg) was “No changes in heart rate”. The “decrease in diastolic pressure” value [1, 3] was ~12.5%, the “decrease in mean arterial pressure” value [1, 3] was ~10.3% and the “decrease in systolic pressure” value [1, 3] was “approximately 9.2%”. The hypotensive response ([1]; oral 1.4 mg/kg, at 60 minutes) was “remained significant”, the HR [1, 4] was 216 ± 18 beats/min and the MAP [1, 4] was 96 ± 6 mmHg. The “RPP (systolic arterial pressure x HR)” value [1, 4] was 23137 ± 1617, the HR [1, 5] was 205 ± 14 beats/min and the MAP [1, 5] was 89 ± 0.4 mmHg. For the same compound, the “RPP (systolic arterial pressure x HR)” value [1, 5] was 21647 ± 2274, the HR [1, 6] was 187 ± 9 beats/min and the MAP [1, 6] was 81 ± 5c mmHg. For the same compound, the “RPP (systolic arterial pressure x HR)” value [1, 6] was 18555 ± 1336, the HR [1, 7] was 187 ± 9 beats/min and the MAP [1, 7] was 82 ± 5c mmHg. For the same compound, the “RPP (systolic arterial pressure x HR)” value [1, 7] was 17738 ± 860c, the HR [1, 8] was 216 ± 5 beats/min and the MAP [1, 8] was 100 ± 2a mmHg. For the same compound, the “RPP (systolic arterial pressure x HR)” value [1, 8] was 24859 ± 239, the HR [1, 9] was 210 ± 20 beats/min and the MAP [1, 9] was 95 ± 3 mmHg. For the same compound, the “RPP (systolic arterial pressure x HR)” value [1, 9] was 22848 ± 2027, the HR [1, 10] was 190 ± 18 beats/min and the MAP [1, 10] was 104 ± 5 mmHg. For the same compound, the “RPP (systolic arterial pressure x HR)” value [1, 10] was 22089 ± 2288, the HR [1, 11] was 185 ± 14 beats/min and the MAP [1, 11] was 103 ± 8 mmHg. The “RPP (systolic arterial pressure x HR)” value [1, 11] was 20955 ± 1469, the HR [1, 12] was 173 ± 16 beats/min and the MAP [1, 12] was 94 ± 8 mmHg. For the same compound, the “RPP (systolic arterial pressure x HR)” value [1, 12] was 18838 ± 1913, the HR [1, 13] was 171 ± 15 beats/min and the MAP [1, 13] was 94 ± 8 mmHg. The “RPP (systolic arterial pressure x HR)” value [1, 13] was 17692 ± 978, the HR [1, 14] was 187 ± 15 beats/min and the MAP [1, 14] was 109 ± 3 mmHg. The “RPP (systolic arterial pressure x HR)” value [1, 14] was 22626 ± 2173, the HR [1, 15] was 193 ± 7 beats/min and the MAP [1, 15] was 99 ± 3 mmHg. The “RPP (systolic arterial pressure x HR)” value [1, 15] was 21938 ± 989, the HR [1, 16] was 208 ± 11 beats/min and the MAP [1, 16] was 76 ± 7 mmHg. For the same compound, the “RPP (systolic arterial pressure × HR)” value [1, 16] was 17,728 ± 1441, the HR [1, 17] was 247 ± 20 beats/min and the MAP [1, 17] was 77 ± 4^f mmHg. The “RPP (systolic arterial pressure × HR)” value [1, 17] was 21,988 ± 2129, the HR [1, 18] was 204 ± 8 beats/min and the MAP [1, 18] was 81 ± 6^f mmHg. The “RPP (systolic arterial pressure × HR)” value [1, 18] was 18,132 ± 999, the HR [1, 19] was 201 ± 14 beats/min and the MAP [1, 19] was 76 ± 5^f mmHg. For the same compound, the “RPP (systolic arterial pressure × HR)” value [1, 19] was 16748 ± 1425, the HR [1, 20] was 177 ± 11^a beats/min and the MAP [1, 20] was 74 ± 5^f mmHg. The “RPP (systolic arterial pressure × HR)” value [1, 20] was 14909 ± 1289^a, the HR [1, 21] was 158 ± 12^a beats/min and the MAP [1, 21] was 73 ± 5^f mmHg. The “RPP (systolic arterial pressure × HR)” value [1, 21] was 12,967 ± 1115^a, the HR [1, 22] was 189 ± 8^a beats/min and the MAP [1, 22] was 73 ± 9 mmHg. For the same compound, the “RPP (systolic arterial pressure × HR)” value [1, 22] was 15,395 ± 1784, the HR [1, 23] was 229 ± 14 beats/min and the MAP [1, 23] was 76 ± 5^f mmHg. The “RPP (systolic arterial pressure × HR)” value [1, 23] was 19,692 ± 1528, the HR [1, 24] was 215 ± 8 beats/min and the MAP [1, 24] was 71 ± 5^f mmHg. For the same compound, the “RPP (systolic arterial pressure × HR)” value [1, 24] was 17,764 ± 1174, the HR [1, 25] was 179 ± 8^a,b beats/min and the MAP [1, 25] was 74 ± 9^f mmHg. The “RPP (systolic arterial pressure × HR)” value [1, 25] was 15,086 ± 1989, the HR [1, 26] was 170 ± 8^a,b beats/min and the MAP [1, 26] was 73 ± 5^f mmHg. For the same compound, the “RPP (systolic arterial pressure × HR)” value [1, 26] was 13,477 ± 1285^a, the HR [1, 27] was 164 ± 11^a,b beats/min and the MAP [1, 27] was 68 ± 3^f mmHg. The “RPP (systolic arterial pressure × HR)” value [1, 27] was 12,196 ± 1088^a, the “decline in diastolic pressure” value [1, 28] was 47.3% and the “decline in mean arterial pressure” value [1, 28] was 38.8%. For the same compound, the “decline in systolic pressure” value [1, 28] was 24.5%, the “eNOS mRNA and protein expression” value (eNOS) was “increase” and the “time of peak eNOS mRNA level” value (eNOS) was 45 min. For the same compound, the delayed cardioprotection [2] was “absent”.
